Experimental data reported in a melting point compilation (Tetko et al.; mined from patent text by program, amines drawn as free bases though some values may be those of a salt).

SMILES	melting point [°C]
CN1CCN(Cc2ccc3nc(-c4ccc(Cl)c(C#Cc5cnc6cccnn56)c4)[nH]c3c2)CC1	156 to 157
CN(C)CCOc1cc(NS(=O)(=O)c2ccc(Oc3cccc(Cl)c3C#N)cc2)ccc1Cl	103 to 106
N#Cc1cc(C(=O)Nc2ccc(F)cn2)nc(C(F)(F)F)c1	186
CCCCCCCCCCCCn1nnc(NC2CCCCC2)n1	51 to 53
O=CNc1ccc([N+](=O)[O-])cc1	195 to 199
Cc1cccc(C)c1NC(=O)C(Cl)Br (centres undefined)	148 to 149
O=C1NC2(CCCCC2)Sc2ccccc21	193 to 195
CONC(=O)Cc1c(C)n(C(=O)c2ccc(Cl)cc2)c2ccc(OC)cc12	184 to 185
COC(=S)NC[C@H]1CN(c2ccc(-c3nc(Cn4cncn4)cs3)c(F)c2)C(=O)O1	189 to 191
Cc1ccc(-n2nccn2)c(C(=O)O)c1	168
CCCCc1cc(C#N)ncc1C(=O)O	267 to 268
O=C(/C=C/c1cccc(S(=O)(=O)N2CCN(Cc3ccc4c(c3)OCO4)CC2)c1)NO	172
O=C1c2cccc3cc(OS(=O)(=O)C(F)(F)F)cc(c23)C(=O)N1O	167 to 169
CC12CCC3C(CC=C4CC(O)CCC43C)C1CC(Br)C2=O (centres undefined)	167 to 168
Cc1ccc2cccc(OCc3c(C)ccc([N+](=O)[O-])c3C)c2n1	150 to 152
O=C(NC1CN2CCC1CC2)c1cccc2nc(-c3ccc(F)cc3)oc12 (centres undefined)	185 to 187
Cc1cc2c(c(C)c1C)OCC2	< 50
O=[N+]([O-])c1ccc2c(c1)NP(=O)(N(CCCl)CCCl)NC2 (centres undefined)	168 to 170
O=C(CCCC1CCCCC1)C1=C(O)CSC1=O	45 to 50
O=c1c2cc(F)ccc2nc(C(S)c2ncnc3[nH]cnc23)n1-c1ccccc1Cl (centres undefined)	233
Cc1cccnc1CS(N)(=O)=O	155 to 158

SMILES	melting point [°C]
CCOCc1nc2c(N)nc(C)cc2n1NC(C)C	139 to 141
Cc1ccc(S(=O)(=O)NC(C)C(=O)Cl)cc1 (centres undefined)	101 to 102
CS(=O)(=O)NC1CCCOc2ccccc21 (centres undefined)	105 to 106
Cc1cc(S(=O)(=O)Cl)c(C)c(S(=O)(=O)Cl)c1	24 to 27
COc1cccc(-c2cc3nccnc3[nH]2)c1	194 to 196
NC(=O)c1c(C(=O)O)cnn1-c1ccc(Cl)cc1Cl	239 to 240
CCC(C)(C)c1ccc(Oc2cc(NC(=O)Nc3ccc(C#N)cc3)c(O)cc2[N+](=O)[O-])c(C(C)(C)CC)c1	212 to 215
CCCCCCCCCCCCCCCCCCOCC(CO)OC(=O)N1CCOCC1 (centres undefined)	48 to 49
CC1Oc2ccc(CN3CCC(c4ccc(C(F)(F)F)cc4)CC3)cc2NC1=O (centres undefined)	217 to 218
CN(C)S(=O)(=O)Oc1c(Cl)cc(C(C)(C)C)cc1CNC(=O)OC(C)(C)C	122 to 123
CC(=O)Oc1ccc(CC(=O)Nc2cccc(/C=C/c3nc(C4CCC4)cs3)c2)c(C(=O)O)c1	176 to 179
c1ccc(-c2ccc(-c3cn([C@H]4CN5CCC4CC5)nn3)s2)cc1	184
Cc1c(O)c(=O)ccn1CCCCCO	136 to 138
CNC(=O)CCC(=O)c1ccc(OCC2CO2)cc1 (centres undefined)	133 to 140
CC(=NNC(=O)c1ccc2n1Cc1ccccc1N(C(=O)c1ccc(C3CCCCC3)cc1)C2)N(C)C	164 to 175
CC(CC#N)C(=O)c1ccc(C(=O)C(C)CC#N)cc1 (centres undefined)	142 to 145
CC(C)Oc1ccc(S(=O)(=O)c2c(O)cccc2F)c([N+](=O)[O-])c1	117 to 119
CC1(C)CCC(C)(C)c2cc([N+](=O)[O-])c([N+](=O)[O-])cc21	200
CCn1c2s[nH]c(=O)c2c(=O)c2cc(F)c(N3CCN(c4ncccn4)CC3)c(OC(F)F)c21	259 to 262
Cc1cc(NC(=O)CN(CC(=O)O)CC(=O)O)ccc1Br	206 to 209
NC(=O)c1nc(-c2cccc(O)c2)nc2c1[nH]c(=O)n2-c1cccc(F)c1	> 375

SMILES	melting point [°C]
CC1=C(C(=O)OC(C)(C)C)C(c2cccc(Cl)c2Cl)C(C(=O)OC(C)(C)C)=C(C)N1	144 to 145
OCCN1CCN(Cc2ccc(O)c3ncccc23)CC1	123 to 124
Cc1cccc(-c2ccnc3c(C(=O)N=CN(C)C)cnn23)c1	165 to 166
CS(=O)(=O)Oc1cc(OS(C)(=O)=O)cc(OS(C)(=O)=O)c1	145 to 149
O=S1(=O)NCN(CCF)c2cc(Cl)c(Cl)cc21	156 to 157
Cc1ccccc1P(=O)(Cc1ccc2ccccc2c1-c1c(CP(=O)(c2ccccc2C)c2ccccc2C)ccc2ccccc12)c1ccccc1C	231 to 234
CCCCCC(=O)Nc1ccc2ccn(CCCO)c2c1	87 to 88
CCCC(C(C)C)C(CN)CC(=O)O (centres undefined)	160 to 170
CCCCCCCCCCNC(=O)N[C@H]1CCCNC(=O)C1	97 to 98
CCc1cccc2nc3c(=O)[nH][nH]c(=O)c3c(O)c12	> 400
Cc1nnc(-c2ccc3c(c2)c2cc(-c4ccc(Cl)cc4Cl)c(=O)n(C)c2n3C)o1	311 to 316
Cc1noc(NS(=O)(=O)c2cccc(Cl)c2C)c1Br	185 to 187
Clc1ccc(N2CCN(Cc3cn4cc(Br)ccc4n3)CC2)c(Cl)c1	137 to 138
N#CC(Cl)CC(Cl)(Cl)C=O (centres undefined)	49 to 50
CCCCCCCC(N)=NO	73 to 75
CC(C)=NN(C)C1=NOCc2ccc(Cl)cc21	105 to 106
CC(C)(C)c1ccc(C(=O)N[C@H]2CC[C@H](CCN3CCN(c4nccc5c4OCC5)CC3)CC2)cc1	183
CCOC(=O)CCN(CCCCCCN(CCC(=O)OCC)C1CC(C)(C)NC(C)(C)C1)C1CC(C)(C)NC(C)(C)C1	58 to 60
CC(C)[C@H](C[C@@H]1OC(C)(C)N(C(=O)OC(C)(C)C)[C@H]1CC1CCCCC1)C(=O)NCCNc1nc(N)n[nH]1	99 to 112

Second part, the compound after the results:

melting point [°C]	SMILES
269	N#Cc1c(N2CCN(C(=O)c3cccs3)CC2)c2cccnc2n(CC(=O)c2ccccc2)c1=O
232 to 233	c1cnc(NCc2ccc(-c3n[nH]c4c3Cc3ccccc3-4)s2)nc1
114	CC(C)(c1ccccc1)c1ccc(OCC(=O)O)c(C(C)(C)c2ccccc2)c1
150 to 153	S=C1CNc2ccccc2CN1
116 to 118	O=C1c2ccccc2CN1C1CCN(Cc2ccccc2)CC1
214 to 216	Cc1ccc(-c2ccc3c(c2)C=C(C(=O)Nc2ccc(-c4cccnc4)cc2)CCO3)cc1
132 to 140	CC(C)C(=O)Nc1nc(CN2CCN(C(c3ccccc3)c3ccccc3)CC2)cs1
142 to 143	NCCSC(c1ccccc1)(c1ccccc1)c1ccccc1
172 to 174	CCSc1nc(NCc2ccccc2)c2ncn(C3OC(CO)C(O)C3O)c2n1 (centres undefined)
83 to 85	Cc1cccc(-c2[nH]c(C(C)C)nc2-c2cccc(-c3ccc(F)cc3)c2)n1
195 to 197	CN(CC(=O)O)C[C@H]1O[C@H](c2ccccc2Cl)c2cc(Cl)ccc2N(Cc2ccccc2)C1=O (relative stereo)
246 to 248	O=C1NC(=O)C(=Cc2ccccc2)S1
184 to 185	O=C(N[C@H](Cc1ccc(C(F)(F)F)cc1)[C@@H](O)c1cccc(Oc2ccccc2)c1)c1ccc(F)c2ccccc12 (racemic)
176	CC(Cc1ccncc1)(NC(=O)OC1C2CC3CC(C2)CC1C3)C(=O)NCCc1ccccc1 (centres undefined)
120	CCOC(=O)c1cc2c([nH]1)c(N(C)S(=O)(=O)c1cccs1)cn2Cc1ccccc1
154 to 155	Cc1noc(NS(=O)(=O)c2ccccc2-c2ccccc2)c1C
166 to 167	N#Cc1ccccc1-c1nc2ncccc2o1
220 to 222	FC(F)(F)Oc1ccc(Nc2cc(-c3ccccc3)nc(-c3ccccc3)n2)cc1
141 to 142	CCOC(=O)c1ccc(-c2ccc(OC)c3c2OCCO3)cc1

melting point [°C]	SMILES
257 to 260	CCOC(=O)C1=C(C)NC2=C(C(=O)OC2)C1c1cccc2ncc(-c3ccccc3)cc12 (centres undefined)
162 to 163	OCC1(CO)c2ccccc2C=Cc2ccccc21
> 200	O=C1N(Cc2ccccn2)c2cccc(-c3cccnc3)c2C12COc1cc3c(cc12)CCO3 (centres undefined)
86.3 to 87.8	CCCCCCc1ccc(-c2ncc(C#N)cn2)cc1
87 to 89	CN(CCO)Cc1cc(C(=O)c2ccccc2F)cc(C(C)(C)C)c1O
192 to 194	COc1cc(-c2ccccc2F)c(Cl)cc1C(=O)N1Cc2cccn2Cc2ccccc21
89 to 93	COc1cc(OCc2ccccn2)ccc1/C=C/c1cc(/C=C/c2ccc3ccn(Cc4ccccc4)c3c2)n[nH]1
30 to 31	CC[C@@H](O)[C@@H](CCCC(C)=O)OCc1ccccc1
75 to 77	OC1(Cc2ccccc2F)CCN(Cc2ccccc2)C1 (centres undefined)
204 to 206	Fc1ccccc1Cn1cnc2c(Nn3cccc3)ncnc21
91 to 92	O=C1CC(c2ccc(Cl)cc2Cl)Oc2ccccc21 (centres undefined)
214 to 216	Nc1nc2ccccc2c2c1nc(-c1ccccc1)n2CCCCNS(=O)(=O)c1ccc(F)cc1
106 to 116	COc1cc2c(cc1F)C1(CO2)C(=O)N(CC2CCCO2)c2ccccc21 (centres undefined)
248 to 249	COc1c(CN2C(=O)c3ccccc3C2=O)n(C)c(=O)c2ccc(Cl)cc12
177 to 180	c1ccc(COc2ccc3c(c2)CCc2c-3[nH]c3ccc(OCc4ccccc4)cc23)cc1
140 to 141	CC1Nc2ccccc2N(Cc2ccccc2)C(=O)C1Cc1ccccc1 (centres undefined)
265 to 267	CS(=O)(=O)c1ccc(-c2cnn(-c3csc4ccccc34)c(=O)c2-c2ccc(F)cc2)cc1
130 to 131	COc1ccc(-c2nc(C(=O)NC3CCN(Cc4ccccc4)CC3)sc2-c2ccc(OC)cc2)cc1
249 to 250	CCCNc1ccc(NC(=O)c2ccc(NC(=O)c3ccc(NCCC)nc3)nc2)nc1
